Key:
Format in all cases: physicochemical
[1] = Antioxidant activity assessed as DPPH free radical scavenging activity
[2] = Antioxidant activity assessed as ONOO- scavenging activity
[3] = Antioxidant activity assessed as ONOO- scavenging activity using plasma treated compound
[4] = Antioxidant activity assessed as DPPH free radical scavenging activity using plasma treated compound

Structure (SMILES) | IC50 [1] [µM] | IC50 [2] [µM] | IC50 [3] [µM] | IC50 [4] [µM]
COCO[C@H]1[C@H](O)[C@@H](O)[C@H](O[C@H]2[C@H](Oc3cc(O)c4c(c3)O[C@H](c3ccc(O)cc3)CC4=O)O[C@H](CO)[C@@H](O)[C@@H]2O)O[C@@H]1C | 148 | 256 | – | –
CC(C)(S)[C@H](N)C(=O)O | – | 5.2 | – | –
C[C@H]1O[C@@H](O[C@H]2[C@H](Oc3cc(O)c4c(c3)O[C@H](c3ccc(O)cc3)CC4=O)O[C@H](CO)[C@@H](O)[C@@H]2O)[C@H](O)[C@@H](O)[C@@H]1O | > 300 | > 300 | – | –
COCO[C@H]1[C@H](O)[C@@H](O[C@@H]2O[C@H](C)[C@@H](O)[C@H](O)[C@H]2O)[C@H](Oc2cc(O)c3c(c2)O[C@@H](c2ccc(O)cc2)CC3=O)O[C@@H]1CO | 57.3 | 4.1 | – | –

Further lines, results first:

IC50 [1] [µM] | IC50 [2] [µM] | IC50 [3] [µM] | IC50 [4] [µM] | Structure (SMILES)
93.8 | > 300 | – | – | C[C@H]1O[C@@H](O[C@H]2[C@H](Oc3cc(O)c4c(c3)O[C@@H](c3ccc(O)cc3)CC4=O)O[C@H](CO)[C@@H](O)[C@@H]2O)[C@H](O)[C@@H](O)[C@@H]1O
23.9 | – | – | – | Oc1cc(O)c2c(c1)O[C@H](c1ccc(O)c(O)c1)[C@@H](O)C2 [CIANIDANOL]
– | – | 15.6 | 110 | C[C@@H]1O[C@@H](O[C@H]2[C@H](Oc3cc(O)c4c(c3)O[C@H](c3ccc(O)cc3)CC4=O)O[C@H](CO)[C@@H](O)[C@@H]2O)[C@H](O)[C@H](O)[C@H]1O [NARINGIN]

Reference: ChEMBL document CHEMBL3397019, “Enhancement of antioxidant effects of naringin after atmospheric pressure dielectric barrier discharge plasma treatment” (Bioorg Med Chem Lett, 2015)
